# Literature values, collected in paper PMC10576142, “Intrinsic structural dynamics dictate enzymatic activity and inhibition” (Proceedings of the National Academy of Sciences of the …, 2023).
# System: HDAC8
# Design: method as in PMID 24079912
structure (smiles),measurement,value
"CC(/C=C/C(=O)NO)=C\[C@@H](C)C(=O)c1ccc(N(C)C)cc1 [TCSA, trichostatin A]",overall off-rate,0.1 s⁻¹
